Data on twelve compounds can be found in ChEMBL document CHEMBL1128648, “The enantioselective synthesis and antiinflammatory activity of novel aryl-sphingolipid PKC inhibitors” (Bioorg Med Chem Lett, 1995).

One assay is filed under the species Canis familiaris. Description: Inhibition of PKC-dependent neutrophil superoxide burst in dogs. The class given is functional, Canis lupus familiaris.
The species named for assay [1] is Mus musculus. Description: Anti-inflammatory activity on the mice ears using antiinflammatory assay (TPAEE). The class given is functional.
For assay [2], the species on record is Mus musculus. Description: Percent change in punch weights [right ear(received drug) -left ear(received vehicle)] was determined in mice at a dose of 1 mg/ear. It counts as functional.
The target in a further assay is Protein kinase C (PKC). Description: Inhibition of Protein kinase C isolated from rat brain.

`CCCCCCCCCCCCC/C=C/[C@@H](O)[C@@H](N)CO` [SPHINGOSINE]: in the assay filed under Canis familiaris (Canis lupus familiaris), it took 4.2 µM to reach half-maximal inhibition (IC50). In the assay filed under Mus musculus [1], the ED50 is listed as 0.31 mg ear-1. In addition, the Change in the assay listed under Mus musculus [2] is reported as -74%.
With `CC(=O)O.CCCCCCCCCCC#Cc1cccc([C@@H](O)[C@@H](N)CO)c1` (stereo in doubt; 11(+)), at Protein kinase C (PKC), the IC50 stood at 19.5 µM.
In the case of `CCCCCCCCCCC#Cc1csc([C@@H](O)[C@@H](N)CO)c1.O=C(O)CCC(=O)O` (stereo in doubt; 19 (+)), the values for the IC50 in the assay filed under Canis familiaris and against Protein kinase C (PKC) were 1 µM and 23 µM, respectively. The Change in the assay filed under Mus musculus [2] is -63%.
In the assay listed under Canis familiaris (Canis lupus familiaris), `CC(=O)O.CCCCCCCCCCC#Cc1cccc([C@@H](O)[C@@H](N)CO)c1` (racemic) showed an IC50 of 2.4 µM. Moreover, the ED50 in the assay filed under Mus musculus [1] came to 0.34 mg ear-1. Further, the Change in the assay filed under Mus musculus [2] was -82%.
As for `CC(=O)O.CCCCCCCCCCC#Cc1ccc([C@@H](O)[C@@H](N)CO)s1` (racemic), in the assay listed under Canis familiaris, the 50% inhibitory concentration (IC50) worked out at 1.5 µM. Further, in the assay filed under Mus musculus [1], the ED50 is 0.24 mg ear-1.
`CCCCCCCCCCC#Cc1csc([C@@H](O)[C@@H](N)CO)c1.Cl` (stereo in doubt; 3a (+/-)) returned an ED50 in the assay filed under Mus musculus [1] of 0.23 mg ear-1. Moreover, the Change in the assay filed under Mus musculus [2] is -81%. The IC50 against Protein kinase C (PKC) came to 28.8 µM.
Consider `CCCCCCCCCCC#Cc1csc([C@@H](O)[C@@H](N)CO)c1` (racemic), for which half-maximal inhibition in the assay listed under Canis familiaris (IC50) required 1.5 µM.
On to `CCCCCCCCCCC#Cc1csc([C@@H](O)[C@@H](N)CO)c1.O=C(O)CCC(=O)O` (stereo in doubt; 18 (-)), for which the concentration for half-maximal inhibition (IC50) in the assay filed under Canis familiaris (Canis lupus familiaris) is 1.3 µM; at Protein kinase C (PKC) it was 20.1 µM. The Change in the assay listed under Mus musculus [2] is -73%.
The like results for `CC(=O)O.CCCCCCCCCCC#Cc1ccc([C@@H](O)[C@@H](N)CO)s1` were, in that order, 1.8 µM, 21.3 µM and -81%.
Consider `CCCCCCCCCCC#Cc1csc([C@@H](O)[C@@H](N)CO)c1.Cl` (stereo in doubt; 19a), for which, at Protein kinase C (PKC), the IC50 was 23 µM.
Take `CCCCCCCCCCC#Cc1csc([C@@H](O)[C@@H](N)CO)c1.Cl` (stereo in doubt; 18a): the half-maximal inhibitory concentration (IC50) at Protein kinase C (PKC) worked out at 20.1 µM.
As for `CC(=O)O.CCCCCCCCCCC#Cc1cccc([C@@H](O)[C@@H](N)CO)c1` (stereo in doubt; 10 (-)), the half-maximal inhibitory concentration (IC50) in the assay listed under Canis familiaris was found to be 2.2 µM; against Protein kinase C (PKC), 21.8 µM. Further, the Change in the assay listed under Mus musculus [2] is given as -74%.

What is called IC50 is the concentration needed to halve the response being measured. A higher IC50 goes with lower potency.
